Data as given in DBAASP.
Converted amounts (≈) assume the structure as drawn. “And” between values parts separate entries of the source, which are not always exact repeats. Identical values can stand only once. Each block holds one compound with its values, some of them ahead of it.

Tests used:
Test in all cases: ≥ marks a high value that may be exact or a test limit, other limits are often not marked, values filed in µg/mL are converted to µM
[1] = system: Mycobacterium tuberculosis H37Rv
[2] = system: Micrococcus luteus ATCC 4698
[3] = system: Escherichia coli DH5alpha
[4] = system: Staphylococcus epidermidis ATCC 12228
[5] = system: Staphylococcus aureus ATCC 6538
[6] = system: Pseudomonas aeruginosa ATCC 13388
[7] = system: Klebsiella pneumoniae ATCC 10031
[8] = system: Escherichia coli ATCC 11219
[9] = system: Salmonella enterica subsp. enterica serovar Typhimurium ATCC 14028
Escherichia coli MG1655 = system: Escherichia coli MG1655
Bacillus subtilis 168 HT = system: Bacillus subtilis 168 HT
[10] = system: Escherichia coli ATCC 25922
[11] = system: Staphylococcus aureus ATCC 25923
[12] = system: Pseudomonas aeruginosa ATCC BAA-427
[13] = system: Bacillus subtilis ATCC 6633
Bacillus subtilis = system: Bacillus subtilis
Escherichia coli = system: Escherichia coli
[14] = system: Enterococcus faecalis ATCC 29212
[15] = system: Klebsiella pneumoniae ATCC 13883
[16] = system: Pseudomonas aeruginosa ATCC 27853
[17] = system: Streptococcus pyogenes ATCC 19615
[18] = system: Salmonella enterica subsp. enterica serovar Enteritidis
Micrococcus luteus A270 = system: Micrococcus luteus A270
Listeria innocua = system: Listeria innocua
Candida albicans MDM8 = system: Candida albicans MDM8
Escherichia coli SBS 363 = system: Escherichia coli SBS 363
Staphylococcus aureus = system: Staphylococcus aureus
Micrococcus luteus = system: Micrococcus luteus

MIC [1]: ≥ 90.1 µM
Compound: CSCC[C@H](NC(=O)CNC(=O)[C@H](CC(C)C)NC(=O)[C@H](CCCN=C(N)N)NC(=O)[C@H](CCCN=C(N)N)NC(=O)[C@H](C)N)C(=O)N[C@@H](CC(N)=O)C(=O)N1CCC[C@H]1C(=O)N[C@@H](Cc1c[nH]c2ccccc12)C(=O)N[C@@H](CCCCN)C(=O)N[C@H](C(=O)N1CCC[C@H]1C(=O)N1CCC[C@H]1C(=O)N[C@@H](C)C(=O)N[C@@H](CCCCN)C(=O)N1CCC[C@H]1C(=O)N[C@@H](CCCCN)C(=O)NCC(=O)N[C@@H](CO)C(=O)N[C@@H](CCCCN)C(=O)O)[C@@H](C)O [ARRLGMNPWKTPPAKPKGSK]

MIC [2]: 3.64 µM (≈ 5 µg/mL) | MIC [3]: 21.9 µM (≈ 30 µg/mL) | MIC [4]: 8.01 µM (≈ 11 µg/mL) | MIC [5]: 5.1 µM (≈ 7 µg/mL)
Compound: CC(C)C[C@H](NC(=O)[C@H](CC(C)C)NC(=O)[C@H](CCCCN)NC(=O)[C@H](CO)NC(=O)[C@H](CC(C)C)NC(=O)[C@H](C)NC(=O)[C@H](CCCCN)NC(=O)[C@@H](NC(=O)[C@H](CC(C)C)NC(=O)[C@H](C)NC(=O)CNC(=O)[C@H](CC(C)C)NC(=O)[C@@H](N)Cc1ccccc1)C(C)C)C(=O)O [FLGALVKALSKLL]

MIC [1]: ≥ 192 µM
Compound: CC[C@H](C)[C@H](NC(=O)CN)C(=O)NCC(=O)N[C@@H](CCCCN)C(=O)N[C@@H](Cc1ccccc1)C(=O)N[C@@H](CC(C)C)C(=O)N[C@@H](CCCCN)C(=O)N[C@@H](CO)C(=O)N[C@@H](CCCCN)C(=O)NCC(=O)N[C@@H](CCCCN)C(=O)N[C@@H](Cc1ccccc1)C(=O)NCC(=O)N[C@@H](CCCCN)C(=O)N[C@@H](C)C(=O)O [GIGKFLKSKGKFGKA]

MIC [6]: 10 µM (≈ 12.8 µg/mL) | MIC [7]: 20 µM (≈ 25.7 µg/mL) | MIC [8]: 20 µM (≈ 25.7 µg/mL) | MIC [9]: 4 µM (≈ 5.14 µg/mL) | MIC [5]: 20 µM (≈ 25.7 µg/mL)
Compound: CC[C@H](C)[C@H](NC(=O)CN)C(=O)N[C@@H](Cc1cnc[nH]1)C(=O)N[C@@H](CC(=O)O)C(=O)N[C@@H](C)C(=O)N[C@@H](CC(C)C)C(=O)N[C@@H](CCCCN)C(=O)N[C@@H](Cc1ccc(O)cc1)C(=O)NCC(=O)N[C@@H](CCCCN)C(=O)N1CCC[C@H]1C(=O)N[C@@H](CO)C(N)=O [GIHDALKYGKPS]

MIC [6]: 30 µM (≈ 39 µg/mL) | MIC [7]: 30 µM (≈ 39 µg/mL) | MIC [8]: ≥ 50 µM | MIC [9]: 10 µM (≈ 13 µg/mL) | MIC [5]: 10 µM (≈ 13 µg/mL)
Compound: CC[C@H](C)[C@H](NC(=O)CN)C(=O)N[C@@H](Cc1cnc[nH]1)C(=O)N[C@@H](CC(=O)O)C(=O)N[C@H](C(=O)N[C@@H](CC(C)C)C(=O)N[C@@H](CCCCN)C(=O)N[C@@H](Cc1ccc(O)cc1)C(=O)NCC(=O)N[C@@H](CCCCN)C(=O)N[C@@H](C)C(=O)N[C@@H](CO)C(N)=O)[C@@H](C)CC [GIHDILKYGKAS]

MIC [6]: 20 µM (≈ 27.2 µg/mL) | MIC [7]: 20 µM (≈ 27.2 µg/mL) | MIC [8]: 10 µM (≈ 13.6 µg/mL) | MIC [9]: 20 µM (≈ 27.2 µg/mL) | MIC [5]: 30 µM (≈ 40.7 µg/mL)
Compound: CC[C@H](C)[C@H](NC(=O)CN)C(=O)N[C@@H](Cc1cnc[nH]1)C(=O)N[C@@H](CC(=O)O)C(=O)N[C@H](C(=O)N[C@@H](CC(C)C)C(=O)N[C@@H](CCCCN)C(=O)N[C@@H](Cc1ccc(O)cc1)C(=O)NCC(=O)N[C@@H](CCCCN)C(=O)N[C@@H](CCCCN)C(=O)N[C@@H](CO)C(N)=O)[C@@H](C)CC [GIHDILKYGKKS]

MIC (Escherichia coli MG1655): ≥ 90 µM | MIC (Bacillus subtilis 168 HT): ≥ 45 µM
Compound: CC[C@H](C)[C@H](NC(=O)[C@@H](NC(=O)[C@H](CCCCN)NC(=O)[C@H](CCCCN)NC(=O)[C@H](Cc1ccccc1)NC(=O)[C@@H](N)CCCCN)C(C)C)C(=O)N[C@@H](Cc1c[nH]c2ccccc12)C(=O)N[C@@H](CCCCN)C(=O)N[C@@H](CO)C(=O)N[C@@H](Cc1ccccc1)C(=O)N[C@@H](CC(C)C)C(=O)O [KFKKVIWKSFL]

MIC (Escherichia coli MG1655): ≥ 101 µM | MIC (Bacillus subtilis 168 HT): ≥ 101 µM
Compound: CC(C)C[C@H](NC(=O)[C@H](CC(C)C)NC(=O)[C@H](CCCN=C(N)N)NC(=O)[C@H](CCCN=C(N)N)NC(=O)[C@H](CCCCN)NC(=O)[C@H](C)NC(=O)[C@H](CCCCN)NC(=O)[C@@H](N)CCCCN)C(=O)N[C@@H](CCCCN)C(=O)N[C@@H](CCCCN)C(=O)O [KKAKRRLLKK]

MIC [10]: > 100 µM | MIC [11]: > 100 µM | MIC [12]: ≥ 100 µM | MIC [13]: ≥ 100 µM
Compound: CC(C)C[C@H](NC(=O)[C@H](CC(=O)O)NC(=O)[C@H](CC(C)C)NC(=O)[C@H](CCCCN)NC(=O)[C@H](CC(C)C)NC(=O)[C@H](CC(=O)O)NC(=O)[C@H](CC(C)C)NC(=O)[C@H](CCCCN)NC(=O)[C@H](CC(C)C)NC(=O)[C@H](CC(=O)O)NC(=O)[C@H](CC(C)C)NC(=O)[C@@H](N)CCCCN)C(=O)O [KLDLKLDLKLDL]

MIC (Bacillus subtilis): ≥ 50 µM | MIC (Escherichia coli): 50 µM (≈ 72.5 µg/mL) | MIC [11]: 50 µM (≈ 72.5 µg/mL) | MIC [14]: 100 µM (≈ 145 µg/mL) | MIC [15]: ≥ 200 µM | MIC [16]: 100 µM (≈ 145 µg/mL) | MIC [17]: ≥ 50 µM | MIC [9]: > 200 µM
Compound: CC(C)C[C@H](NC(=O)[C@H](CC(C)C)NC(=O)[C@H](CCCCN)NC(=O)[C@H](CC(C)C)NC(=O)[C@H](CCCCN)NC(=O)[C@H](CC(C)C)NC(=O)[C@H](CCCCN)NC(=O)[C@H](CC(C)C)NC(=O)[C@H](CC(C)C)NC(=O)[C@H](CC(C)C)NC(=O)[C@@H](N)CCCCN)C(=O)N[C@@H](CCCCN)C(N)=O [KLLLKLKLKLLK]

MIC (Escherichia coli MG1655): ≥ 92 µM | MIC (Bacillus subtilis 168 HT): ≥ 92 µM
Compound: CC[C@H](C)[C@H](NC(=O)CNC(=O)[C@@H](NC(=O)[C@H](CCCCN)NC(=O)[C@@H](NC(=O)CNC(=O)[C@H](CC(C)C)NC(=O)[C@H](Cc1c[nH]c2ccccc12)NC(=O)[C@H](CCCN=C(N)N)NC(=O)[C@@H](N)CC(C)C)[C@@H](C)O)C(C)C)C(=O)N[C@@H](CC(C)C)C(=O)N[C@@H](CCCCN)C(=O)O [LRWLGTKVGILK]

MIC [18]: 5 µM (≈ 7.93 µg/mL) | MIC (Escherichia coli): 9 µM (≈ 14.3 µg/mL) | MIC (Micrococcus luteus A270): 5 µM (≈ 7.93 µg/mL) | MIC (Listeria innocua): 1 µM (≈ 1.59 µg/mL)
Compound: CC(C)C[C@H](N)C(=O)N[C@@H](CO)C(=O)N[C@@H](Cc1ccccc1)C(=O)N1CCC[C@H]1C(=O)N[C@H](C(=O)N[C@H](C(=O)N[C@@H](CCCCN)C(=O)N[C@H](C(=O)N[C@@H](Cc1ccc(O)cc1)C(=O)N[C@@H](Cc1ccccc1)C(=O)N1CCC[C@H]1C(=O)N[C@@H](Cc1cnc[nH]1)C(=O)N[C@@H](Cc1ccccc1)C(=O)O)[C@@H](C)O)[C@@H](C)O)[C@@H](C)O [LSFPTTKTYFPHF]

MIC (Candida albicans MDM8): 0.78 µM (≈ 1.03 µg/mL) | MIC (Micrococcus luteus A270): 0.5 µM (≈ 0.662 µg/mL) | MIC (Escherichia coli SBS 363): 1.56 µM (≈ 2.07 µg/mL)
Compound: CC[C@H](C)[C@H](NC(=O)[C@H](CC(C)C)NC(=O)[C@H](CO)NC(=O)[C@H](CC(C)C)NC(=O)[C@H](CC(C)C)NC(=O)[C@@H](N)CCCN=C(N)N)C(=O)N[C@@H](CCCN=C(N)N)C(=O)N[C@@H](CCCCN)C(=O)N[C@@H](CC(C)C)C(=O)N[C@H](C(=O)N[C@H](C(N)=O)[C@@H](C)O)[C@@H](C)CC [RLLSLIRKLIT]

MIC [18]: 5 µM and 4.6 µM | MIC (Escherichia coli): 9 µM (≈ 5.88 µg/mL) | MIC (Staphylococcus aureus): 1 µM (≈ 0.654 µg/mL) | MIC (Micrococcus luteus): 9 µM (≈ 5.88 µg/mL) | MIC (Micrococcus luteus A270): 9 µM (≈ 5.88 µg/mL) | MIC (Listeria innocua): 1 µM (≈ 0.654 µg/mL)
Compound: C[C@@H](O)[C@H](N)C(=O)N[C@@H](CO)C(=O)N[C@@H](CCCCN)C(=O)N[C@@H](Cc1ccc(O)cc1)C(=O)N[C@@H](CCCN=C(N)N)C(=O)O [TSKYR]

MIC [6]: 12 µM (≈ 18.7 µg/mL) | MIC [7]: 12 µM (≈ 18.7 µg/mL) | MIC [8]: 8 µM (≈ 12.4 µg/mL) | MIC [9]: 10 µM (≈ 15.5 µg/mL) | MIC [5]: 8 µM (≈ 12.4 µg/mL)
Compound: CC[C@H](C)[C@H](NC(=O)CNC(=O)[C@@H](N)Cc1c[nH]c2ccccc12)C(=O)N[C@@H](Cc1cnc[nH]1)C(=O)N[C@@H](CCCN=C(N)N)C(=O)N[C@H](C(=O)N[C@@H](CC(C)C)C(=O)N[C@@H](CCCCN)C(=O)N[C@@H](Cc1ccc(O)cc1)C(=O)NCC(=O)N[C@@H](CCCCN)C(=O)N1CCC[C@H]1C(=O)N[C@@H](CO)C(=O)O)[C@@H](C)CC [WGIHRILKYGKPS]
